Measurements reported in US4849410A, “Pseudopterosin and synthetic derivatives thereof” (The Regents of the University of California, priority 1987, dated 1989).

Columns and labels:
[1] = tested on: Arachidonic Acid (A.A.) Induced Topical Inflammation of the Mouse Ear; assay: Arachidonic acid induced topical inflammation of the mouse ear; assay type: in vivo; settings: A.A. 25.0 ug; 50.0 ug/ear
[2] = tested on: M5076 reticulum cell sarcoma; assay: Activity in mice bearing ip M5076 reticulum cell sarcoma; assay type: in vivo, female B6D2F1 mice
Description: (§1) Compound I was also evaluated for activity against solid tumors as follows:
(§2) One-half ml of a 10 percent (v:v) brei of tumor cells prepared from solid B16 melanoma or M5076 reticulum cell sarcoma was implanted ip in female B6D2F1 mice which were randomized to treatment groups of 8 animals each. Treatment was initiated 24 hours after tumer inoculation and was continued daily for 10 days (cisplatin was administered q4Dx4 on Days 1, 5, 9 and 13). Mice were monitored daily for 60 days, and the median day of death was determined compared to three groups of untreated controls to provide percent increase in lifespan (ILS). ILS values of greater than or equal to 50 percent represent biologically significant antitumor effects. Cisplatin was curative in M5076 with 6/8 tumor-free survivors on Day 60 at the top dose level.

[3] = tested on: phenyl-p-benzoquinone (PQ) writhing; assay: Phenyl-p-benzoquinone Assay for Analgesia; assay type: in vivo, mouse; settings: for % Inhibition (writhing): s.q.
[4] = CNS activity and toxicity in the comparative tests; settings: during the anti-inflammatory assay
B16 melanoma = assay: Activity in mice bearing ip B16 melanoma; assay type: in vivo, female B6D2F1 mice
Description: as §1, §2

[5] = Side effects and mortality, intraperitoneal administration to mice; assay type: in vivo; settings: for Mortality: on day after administration
Description: Doses up to 50 mg/kg administered intraperitoneally to mice have no effect. […] Mortality at 100 mg/kg=2/10 on day after administration, at 200 mg/kg=2/4 also on day after administration.

[6] = Toxicity of single intraperitoneal doses; assay type: in vivo, female B6D2F1 mice
Description: The toxicity of single intraperitoneal (ip) doses of Compound I in female B6D2F1 mice were evaluated. Doses of up to 150 mg/kg produced no lethality but signs of CNS toxicity were evident at doses greater than or equal to 77 mg/kg.

[7] = tested on: Intraperitoneally Administered Phenylquinone; assay: Phenylquinone Assay for Analgesia (writhing); assay type: in vivo, mice; settings: for Mean No. Responses ± S.E.M.: phenylquinone 2.0 mg/kg
Description: d. Phenylquinone Assay for Analgesia
Test compound is injected subcutaneously into mice. After 30 minutes, phenylquinone is injected intraperitoneally to cause pain as indicated by writhing.
Test compound was administered subcutaneously in sesame oil at concentrations up to 5 mg per ml depending on the test compound dosage protocol. The highest dose was 50 mg per Kg. Control groups received sesame oil subcutaneously.

[8] = tested on: highly metastatic subline (F10) of B16 melanoma; assay: Antiproliferative effects on tumor cells growing in tissue culture; assay type: cell-based; settings: continuous exposure; read-out: concentration that inhibited proliferation by 50 percent
Description: Compound I was also tested for antiproliferative effects on tumor cells growing in tissue culture.

[9] = 100 mg/kg and above intraperitoneally

Compound: CC(C)=C[C@H]1C[C@H](C)[C@H]2CC[C@H](C)c3c(O[C@@H]4OC[C@@H](O)[C@H](O)[C@H]4O)c(O)c(C)c1c32 [Compound I, pseudopterosin A]
- Ear Weight Mean ± S.E.M. [1]: 13.33 ± 0.38 mg
- Increase to Lifespan ([2]; 8.64 mg/kg ip): -2%
- Median Survival Time ([2]; 8.64 mg/kg ip): 20.5 days
- Weight Change on Day 9 ([2]; 8.64 mg/kg ip): +0.1 gm
- Increase to Lifespan ([2]; 14.4 mg/kg ip): 0%
- Median Survival Time ([2]; 14.4 mg/kg ip): 21 days
- Weight Change on Day 9 ([2]; 14.4 mg/kg ip): +0.2 gm
- Increase to Lifespan ([2]; 24 mg/kg ip): 0%
- Median Survival Time ([2]; 24 mg/kg ip): 21 days
- Weight Change on Day 9 ([2]; 24 mg/kg ip): +0.6 gm
- Increase to Lifespan ([2]; 40 mg/kg ip): -2%
- Median Survival Time ([2]; 40 mg/kg ip): 20.5 days
- Weight Change on Day 9 ([2]; 40 mg/kg ip): -1.1 gm
- Increase to Lifespan ([2]; 66.7 mg/kg ip): 2%
- Median Survival Time ([2]; 66.7 mg/kg ip): 21.5 days
- Weight Change on Day 9 ([2]; 66.7 mg/kg ip): -2.9 gm
- antitumor activity ([2]; M5076 reticulum cell sarcoma): did not demonstrate significant antitumor activity
- ED50 ([3]; 50% inhibition of writhing, n = 10 mice/dose): 4.22 mg/kg
- % Inhibition (writhing) ([3]; 2.0 mg/kg): 29%
- % Inhibition (writhing) ([3]; 3.5 mg/kg): 46%
- % Inhibition (writhing) ([3]; 5.0 mg/kg): 38%
- % Inhibition (writhing) ([3]; 7.5 mg/kg): 79%
- % Inhibition (writhing) ([3]; 10 mg/kg): 73%
- % Inhibition (writhing) ([3]; 20 mg/kg): 96%
- CNS stimulation [4]: exhibited the CNS stimulation
- Increase to Lifespan (B16 melanoma; 6.48 mg/kg ip): -2%
- Median Survival Time (B16 melanoma; 6.48 mg/kg ip): 21.5 days
- Weight Change on Day 9 (B16 melanoma; 6.48 mg/kg ip): +1.2 gm
- Increase to Lifespan (B16 melanoma; 10.8 mg/kg ip): -7%
- Median Survival Time (B16 melanoma; 10.8 mg/kg ip): 20.5 days
- Weight Change on Day 9 (B16 melanoma; 10.8 mg/kg ip): +1.0 gm
- Increase to Lifespan (B16 melanoma; 18 mg/kg ip): -2%
- Median Survival Time (B16 melanoma; 18 mg/kg ip): 21.5 days
- Weight Change on Day 9 (B16 melanoma; 18 mg/kg ip): +0.9 gm
- Increase to Lifespan (B16 melanoma; 30 mg/kg ip): 11%
- Median Survival Time (B16 melanoma; 30 mg/kg ip): 24.5 days
- Weight Change on Day 9 (B16 melanoma; 30 mg/kg ip): +0.5 gm
- Increase to Lifespan (B16 melanoma; 50 mg/kg ip): -4%
- Median Survival Time (B16 melanoma; 50 mg/kg ip): 21 days
- Weight Change on Day 9 (B16 melanoma; 50 mg/kg ip): -0.4 gm
- antitumor activity (B16 melanoma; B16 melanoma): did not demonstrate significant antitumor activity
- return to normal activity [5, 9]: ≤ 30 min
- side effects [5, 9]: mild excitation and writhing in some animals
- Mortality ([5]; 100 mg/kg): 2/10
- Mortality ([5]; 200 mg/kg): 2/4
- side effects ([5]; up to 50 mg/kg intraperitoneally): no effect
- dose at which signs of CNS toxicity were evident ([6]; single ip dose): greater than or equal to 77 mg/kg
- Symptoms of CNS toxicity ([6]; single ip doses >= 77 mg/kg): hypersensitivity to external stimuli and shivering
- lethality ([6]; single ip doses of up to 150 mg/kg): no lethality
- Mean No. Responses ± S.E.M. ([7]; 3.1 mg/kg): 8.55 ± 1.38
- Mean No. Responses ± S.E.M. ([7]; 6.3 mg/kg): 5.87 ± 1.24
- Mean No. Responses ± S.E.M. ([7]; 12.5 mg/kg): 5.87 ± 0.77
- Mean No. Responses ± S.E.M. ([7]; 25.0 mg/kg): 1.80 ± 1.31
- Mean No. Responses ± S.E.M. ([7]; 50.0 mg/kg): 0
- analgesia against chemically induced pain ([7]; mouse, in vivo): provides analgesia
- Analgesic Activity ([7]; summary): Active
- IC50 [8]: 42 µM
